{"source": "patent US20260240852A1", "about": "“Use of Oral JAK Kinase Inhibitors to Treat Lichen Planus” (Mayo Foundation for Medical Education and Research, priority 2023, published 2026)", "assay_type_in_all_cases": "in vivo, human", "key": {"[1]": {"system": "patients with biopsy-proven cutaneous LP", "test": "Open-label, single-arm phase 2 trial of oral baricitinib in cutaneous lichen planus: clinical efficacy", "conditions": "dose escalation, after 12 weeks of 4 mg daily, five patients"}, "[2]": {"test": "Adverse event assessment in the baricitinib LP trial (CTCAE version 5.0)", "experimental": "(§1) Assessments of treatment efficacy, adverse events (AEs), and QoL were completed at each study visit. All lesions were annotated, photographed, and scored using the mCAILS criteria. 16 All clinical assessments were performed by the principal investigator and co-investigators (ARM, MRP, SZ) with questionable lesions scored by 2 investigators. The revised National Cancer Institute Common Terminology Criteria for Adverse Events version 5.0 was used for AE reporting. Due to travel issues, one patient withdrew from the study after week 8. An intention-to-treat (ITT) analysis was used with the patient's last observation to impute week 16 data."}, "[3]": {"system": "patients with biopsy-proven cutaneous LP", "test": "Open-label, single-arm phase 2 trial of oral baricitinib in cutaneous lichen planus: clinical efficacy", "experimental": "A clinical study was conducted in which 12 patients with biopsy-proven LP were trialed on oral baricitinib at a daily dose of 2 mg for 16 weeks. Other inclusionary criteria included having at least 4 lesions of LP at baseline. The mean age of participants was 63.6 years. The vast majority were female and identified as Caucasian. A quarter were under-represented minorities. The mean duration of disease for all patients was 2.2 years. Five of the 12 participants had hypertrophic LP, and 11 were refractory to prior therapy. All but one patient had previously trialed topical steroids. Almost half (41.7%) had failed oral or IM steroids.\nThe primary outcome of this study was PGA at week 16, with treatment response defined as greater than 50% improvement with a PGA grade of 0 to 3. Non-responsive was defined as PGA 4 and 5. Secondary endpoints included changes from baseline to week 16 in mCAILS, pruritus scores, Skindex-16, BSA, and total lesion count.\nTrial Design. A single-arm, open-label, phase 2, […] trial was conducted at Mayo Clinic, Arizona (ClinicalTrials.gov identifier NCT05188521). The Mayo Clinic Institutional Review Board approved the study (IRB 21-003075), and all patients provided written informed consent. Twelve patients with biopsy-proven cutaneous LP were administered oral baricitinib 2 mg once daily for 16-weeks. The primary endpoint was an overall response by Physician Global Assessment (PGA) of skin at week 16, with treatment response defined as PGA 0 to 3 (with ≥50% score reduction). Secondary outcomes were changes in mCAILS, total body lesion count, affected BSA, pruritus numeric rating scale (NRS), pruritus verbal rating scale (VRS), pruritus visual analog scale (VAS), pain NRS, and Skindex-16. Patients were evaluated at baseline (week 0) and weeks 2, 4, 8, 12, and 16. […] Complete responders at week 16 were reassessed at week 20 and partial responders at week 16 were reassessed at week 32, after an off-therapy period of 4 weeks, respectively.\nas §1\nEligibility Criteria. Patients aged ≥18 years with biopsy-proven cutaneous LP were eligible for the trial. Both treatment-naïve and treatment-refractory disease were included. Key exclusion criteria included predominantly non-cutaneous variants of LP, active infections, and other active inflammatory cutaneous conditions.\nStatistical Analysis. Patient demographics, clinical characteristics, and outcomes were summarized as mean, standard deviation, median, interquartile range for continuous variables, and frequency and percentages for categorical variables. Primary and secondary outcome differences between baseline and week 16 were compared using Wilcoxon signed rank test for continuous variables and McNemar's test for binary variables. One patient withdrew from the study after week 8, and this patient's last observation (week 8) was used to impute week 16 data in the ITT analysis.\nExact binomial method was used to calculate the treatment response rate at week 16 and its corresponding 95% confidence interval. All analyses were conducted with R version 4.1.2 (R Foundation for Statistical Computing, Vienna, Austria). The cut-off for statistical significance was set as 0.05."}, "[4]": {"conditions": "five dose-escalation patients at week 16 (after 2 mg daily), start of dose escalation"}, "[5]": {"conditions": "oral 2 mg once daily, baseline to week 16, ITT"}, "[6]": {"conditions": "oral 2 mg once daily, baseline to week 16, ITT, P 0.002"}, "[7]": {"conditions": "oral 2 mg once daily, baseline to week 16, ITT, P 0.003"}}, "note": "Where “and” joins values, the source holds several entries; their conditions need not be identical. Equal values may be shown once.", "data": [{"smiles": "CCS(=O)(=O)N1CC(CC#N)(n2cc(-c3ncnc4[nH]ccc34)cn2)C1", "note": "[baricitinib]", "values": [{"measurement": "Patients almost clear (PGA grade 1)", "setting": "[1]", "value": 20.0, "unit": "%"}, {"measurement": "Patients completely clear of disease (PGA grade 0)", "setting": "[1]", "value": 60.0, "unit": "%"}, {"measurement": "Patients with slight improvement (PGA grade 4)", "setting": "[1]", "value": 20.0, "unit": "%"}, {"measurement": "Total adverse events", "setting": "[2]; 12 patients, oral baricitinib", "value": 12}, {"measurement": "AEs leading to discontinuation", "setting": "[2]; in vivo", "value": "No AEs led to the discontinuation"}, {"measurement": "Serious adverse events", "setting": "[2]; in vivo", "value": "Serious adverse events did not occur"}, {"measurement": "Adverse events related / probably related to the study drug", "setting": "[2]; low neutrophil count (neutropenia), mild, not deemed serious", "value": "one and A single AE of neutropenia"}, {"measurement": "AEs that were mild", "setting": "[2]; of 12 AEs", "value": 58.3, "unit": "%"}, {"measurement": "AEs that were moderate", "setting": "[2]; of 12 AEs", "value": 25.0, "unit": "%"}, {"measurement": "Adverse events unrelated or unlikely to be related to baricitinib", "setting": "[2]; of 12 AEs", "value": 11}, {"measurement": "Absolute neutrophil count of the drug-related AE", "setting": "[2]; the one mild AE deemed probably related to the study drug", "value": "7.8e+08", "unit": "L⁻¹"}, {"measurement": "Patients with PGA grade 1", "setting": "[3]; [4]", "value": 80.0, "unit": "%"}, {"measurement": "Patients with PGA grade 4", "setting": "[3]; [4]", "value": 20, "unit": "%"}, {"measurement": "Mean total body lesion count", "setting": "[3]; oral 2 mg daily, by week 16, 146 at baseline (first report)", "value": 8}, {"measurement": "Treatment response (PGA), patients", "setting": "[3]; oral 2 mg daily, week 1", "value": 37.5, "unit": "%"}, {"measurement": "Treatment response (PGA), patients", "setting": "[3]; oral 2 mg daily, week 12", "value": 100, "unit": "%"}, {"measurement": "Patients with a PGA grade of 0 or 1 (completely clear and almost clear)", "setting": "[3]; oral 2 mg daily, week 16 (primary endpoint), all but one patient", "value": 90.9, "unit": "%"}, {"measurement": "BSA affected (%), Range, Difference", "setting": "[3]; [5]", "value": "−9.8 to −0.1", "unit": "%"}, {"measurement": "Pain NRS, Range, Difference", "setting": "[3]; [5]", "value": "−8.0 to 0.0"}, {"measurement": "Pruritus NRS, Range, Difference", "setting": "[3]; [5]", "value": "−8.0 to −0.0"}, {"measurement": "Pruritus VAS, Range, Difference", "setting": "[3]; [5]", "value": "−7.7 to 1.5"}, {"measurement": "Skindex-16 emotional, Range, Difference", "setting": "[3]; [5]", "value": "−34.0 to 0.0"}, {"measurement": "Skindex-16 functional, Range, Difference", "setting": "[3]; [5]", "value": "−15.0 to 0.0"}, {"measurement": "Skindex-16 overall, Range, Difference", "setting": "[3]; [5]", "value": "−58.0 to 0.0"}, {"measurement": "Skindex-16 symptom, Range, Difference", "setting": "[3]; [5]", "value": "−19.0 to 0.0"}, {"measurement": "Total Body Lesion Count, Range, Difference", "setting": "[3]; [5]", "value": "−570.0 to −4.0"}, {"measurement": "mCAILS, Range, Difference", "setting": "[3]; [5]", "value": "−14.6 to −5.0"}, {"measurement": "BSA affected (%), Mean (SD), Difference", "setting": "[3]; [6]", "value": "−3.9 (2.9) %"}, {"measurement": "Total Body Lesion Count, Mean (SD), Difference", "setting": "[3]; [6]", "value": "−134.8 (157.0)"}, {"measurement": "mCAILS, Mean (SD), Difference", "setting": "[3]; [6]", "value": "−10.6 (2.9)"}, {"measurement": "Pruritus NRS, Mean (SD), Difference", "setting": "[3]; [7]", "value": "−5.3 (2.6)"}, {"measurement": "Pruritus VAS, Mean (SD), Difference", "setting": "[3]; [7]", "value": "−5.0 (2.6)"}, {"measurement": "Pain NRS, Mean (SD), Difference", "setting": "[3]; oral 2 mg once daily, baseline to week 16, ITT, P 0.005", "value": "−5.6 (2.7)"}, {"measurement": "Skindex-16 overall, Mean (SD), Difference", "setting": "[3]; oral 2 mg once daily, baseline to week 16, ITT, P 0.008", "value": "−37.3(18.3)"}, {"measurement": "Pain NRS4, patients achieving", "setting": "[3]; oral 2 mg once daily, week 16", "value": 66.7, "unit": "%"}, {"measurement": "Pruritus NRS improvement >4 from baseline (NRS4), patients achieving", "setting": "[3]; oral 2 mg once daily, week 16", "value": 75.0, "unit": "%"}, {"measurement": "PGA Non-responsive (n, %)", "setting": "[3]; oral 2 mg once daily, week 16, ITT, 12 patients", "value": 16.7, "unit": "%"}, {"measurement": "PGA Responsive (n, %)", "setting": "[3]; oral 2 mg once daily, week 16, ITT, 12 patients, response = PGA 0 to 3 with ≥50% score reduction", "value": 83.3, "unit": "%"}, {"measurement": "BSA affected (%), Mean (SD), Week 16", "setting": "[3]; oral 2 mg once daily, week 16, ITT, baseline 4.9 (3.7), P 0.002", "value": "1.0% and 1.0 (2.5) %"}, {"measurement": "Skindex-16 functional, Mean (SD), Week 16", "setting": "[3]; oral 2 mg once daily, week 16, ITT, baseline 11.6 (10.2), P 0.012", "value": "4.5 (9.0)"}, {"measurement": "mCAILS, Mean (SD), Week 16", "setting": "[3]; oral 2 mg once daily, week 16, ITT, baseline 12.3 (3.2), P 0.002", "value": "1.7 (3.3)"}, {"measurement": "Skindex-16 symptom, Mean (SD), Week 16", "setting": "[3]; oral 2 mg once daily, week 16, ITT, baseline 16.4 (6.0), P 0.005", "value": "3.7 (7.0)"}, {"measurement": "Skindex-16 emotional, Mean (SD), Week 16", "setting": "[3]; oral 2 mg once daily, week 16, ITT, baseline 29.9 (9.0), P 0.003", "value": "9.0 (12.4)"}, {"measurement": "Skindex-16 overall, Mean (SD), Week 16", "setting": "[3]; oral 2 mg once daily, week 16, ITT, baseline 59.0 (22.1), P 0.008", "value": "16.9 (28.7)"}, {"measurement": "Skindex-16 functional, Range, Week 16", "setting": "[3]; oral 2 mg once daily, week 16, ITT, baseline range 0.0-30.0", "value": "0.0-30.0"}, {"measurement": "BSA affected (%), Range, Week 16", "setting": "[3]; oral 2 mg once daily, week 16, ITT, baseline range 0.1-12.0", "value": "0.0-8.5%"}, {"measurement": "Pruritus NRS, Range, Week 16", "setting": "[3]; oral 2 mg once daily, week 16, ITT, baseline range 1.0-10.0", "value": "0.0-10.0"}, {"measurement": "Pruritus VAS, Range, Week 16", "setting": "[3]; oral 2 mg once daily, week 16, ITT, baseline range 2.7-8.8", "value": "0.0-9.0"}, {"measurement": "Pain NRS, Range, Week 16", "setting": "[3]; oral 2 mg once daily, week 16, ITT, baseline range 4.0-10.0", "value": "0.0-10.0"}, {"measurement": "Skindex-16 symptom, Range, Week 16", "setting": "[3]; oral 2 mg once daily, week 16, ITT, baseline range 4.0-24.0", "value": "0.0-24.0"}, {"measurement": "Total Body Lesion Count, Range, Week 16", "setting": "[3]; oral 2 mg once daily, week 16, ITT, baseline range 4.0-600.0", "value": "0.0-117.0"}, {"measurement": "mCAILS, Range, Week 16", "setting": "[3]; oral 2 mg once daily, week 16, ITT, baseline range 7.0-18.6", "value": "0.0-8.9"}, {"measurement": "Skindex-16 emotional, Range, Week 16", "setting": "[3]; oral 2 mg once daily, week 16, ITT, baseline range 17.0-42.0", "value": "0.0-42.0"}, {"measurement": "Skindex-16 overall, Range, Week 16", "setting": "[3]; oral 2 mg once daily, week 16, ITT, baseline range 35.0-96.0", "value": "0.0-96.0"}, {"measurement": "Overall Skindex-16 score, mean decrease from baseline to week 16", "setting": "[3]; oral 2 mg once daily, SD 18.3, p=0.008", "value": 37.3}, {"measurement": "Treatment response (PGA), patients", "setting": "[3]; week 20, after 4 weeks of being off-therapy", "value": 100, "unit": "%"}]}]}
